Patent US8951975B2, “ECT2 peptides and vaccines including the same” (OncoTherapy Science, Inc., priority 2010, dated 2015)
Entries after “also recorded” stand apart in the source; their conditions may differ. Ends that are not written are not given here.

Experiments:
peptide-pulsed T2 cells [1] = experiment: IFN-gamma ELISPOT assay on CTLs induced with peptide-pulsed DCs; assay type: cell-based, human; conditions: for CTL inducibility / specific CTL activity of CTLs stimulated with the peptide: summary statement; for IFN-gamma production of CTLs induced with the peptide (ELISPOT): against peptide-pulsed target cells, compared with control without peptide
Excerpt: Monocyte-derived dendritic cells (DCs) were used as antigen-presenting cells to induce cytotoxic T lymphocyte (CTL) responses against peptides presented on human leukocyte antigen (HLA). DCs were generated in vitro as described elsewhere (Nakahara S et al., Cancer Res 2003 Jul. 15, 63(14): 4112-8). Specifically, peripheral blood mononuclear cells (PBMCs) isolated from a normal volunteer (HLA-A*0201 positive) by Ficoll-Plaque (Pharmacia) solution were separated by adherence to a plastic tissue culture dish (Becton Dickinson) so as to enrich them as the monocyte fraction. The monocyte-enriched population was cultured in the presence of 1,000 U/ml of granulocyte-macrophage colony-stimulating factor (R&D System) and 1,000 U/ml of interleukin (IL)-4 (R&D System) in AIM-V Medium (Invitrogen) containing 2% heat-inactivated autologous serum (AS). After 7 days of culture, the cytokine-induced DCs were pulsed with 20 micro-g/ml of each of the synthesized peptides in the presence of 3 micro-g/ml of beta 2-microglobulin for 3 hrs at 37 degrees C. in AIM-V Medium. The generated cells appeared to express DC-associated molecules, such as CD80, CD83, CD86 and HLA class II, on their cell surfaces (data not shown). These peptide-pulsed DCs were then inactivated by X-irradiation (20 Gy) and mixed at a 1:20 ratio with autologous CD8+ T cells, obtained by positive selection with CD8 Positive Isolation Kit (Dynal). These cultures were set up in 48-well plates (Corning); each well contained 1.5×10^4 peptide-pulsed DCs, 3×10^5 CD8+ T cells and 10 ng/ml of IL-7 (R&D System) in 0.5 ml of AIM-V/2% AS medium. Three days later, these cultures were supplemented with IL-2 (CHIRON) to a final concentration of 20 IU/ml. On days 7 and 14, the T cells were further stimulated with the autologous peptide-pulsed DCs. The DCs were prepared each time by the same way described above. CTLs were tested against peptide-pulsed T2 cells after the 3rd round of peptide stimulation on day 21 (Tanaka H et al., Br J Cancer 2001 Jan. 5, 84(1): 94-9; Umano Y et al., Br J Cancer 2001 Apr. 20, 84(8): 1052-7; Uchida N et al., Clin Cancer Res 2004 Dec. 15, 10(24): 8577-86; Suda T et al., Cancer Sci 2006 May, 97(5): 411-9; Watanabe T et al., Cancer Sci 2005 August, 96(8): 498-506).
(§1) Specifically, peptide-pulsed T2 (1×10^4/well) was prepared as stimulator cells. Cultured cells in 48 wells were used as responder cells. IFN-gamma ELISPOT assay and IFN-gamma ELISA assay were performed under manufacture procedure.

peptide-pulsed T2 cells [2] = experiment: IFN-gamma ELISA assay of established CTL lines; assay type: cell-based, human; conditions: against target cells pulsed with the corresponding peptide vs without peptide pulse
Experimental: CTLs were expanded in culture using the method similar to the one described by Riddell et al. (Walter E A et al., N Engl J Med 1995 Oct. 19, 333(16): 1038-44; Riddell S R et al., Nat Med 1996 February, 2(2): 216-23). A total of 5×10^4 CTLs were suspended in 25 ml of AIM-V/5% AS medium with 2 kinds of human B-lymphoblastoid cell lines, inactivated by Mitomycin C, in the presence of 40 ng/ml of anti-CD3 monoclonal antibody (Pharmingen). One day after initiating the cultures, 120 IU/ml of IL-2 were added to the cultures. The cultures were fed with fresh AIM-V/5% AS medium containing 30 IU/ml of IL-2 on days 5, 8 and 11 (Tanaka H et al., Br J Cancer 2001 Jan. 5, 84(1): 94-9; Umano Y et al., Br J Cancer 2001 Apr. 20, 84(8): 1052-7; Uchida N et al., Clin Cancer Res 2004 Dec. 15, 10(24): 8577-86; Suda T et al., Cancer Sci 2006 May, 97(5): 411-9; Watanabe T et al., Cancer Sci 2005 August, 96(8): 498-506).
as §1

peptide-pulsed T2 cells [3] = experiment: IFN-gamma ELISA assay of CTL clones established by limiting dilution; assay type: cell-based, human; conditions: against target cells pulsed with peptide vs not pulsed
Experimental: The dilutions were made to have 0.3, 1, and 3 CTLs/well in 96 round-bottomed micro titer plate (Nalge Nunc International). CTLs were cultured with 1×10^4 cells/well of 2 kinds of human B-lymphoblastoid cell lines, 30 ng/ml of anti-CD3 antibody, and 125 U/ml of IL-2 in a total of 150 micro-l/well of AIM-V Medium containing 5% AS. 50 micro-1/well of IL-2 were added to the medium 10 days later so to reach a final concentration of 125 U/ml IL-2. CTL activity was tested on the 14th day, and CTL clones were expanded using the same method as described above (Uchida N et al., Clin Cancer Res 2004 Dec. 15, 10(24): 8577-86; Suda T et al., Cancer Sci 2006 May, 97(5): 411-9; Watanabe T et al., Cancer Sci 2005 August, 96(8): 498-506).
as §1

[4] = test system: COS7 cells transfected with ECT2 and HLA-A*0201; experiment: Specific CTL activity against target cells exogenously expressing ECT2 and HLA-A*0201; assay type: cell-based, African green monkey; conditions: for Specific CTL activity against COS7 cells transfected with both ECT2 and HLA-A*0201: CTL clone (SEQ ID NO: 1) or CTL line (SEQ ID NO: 21) as effector cells; for Specific CTL activity against control COS7 cells expressing either HLA-A*0201 or ECT2: controls transfected with only one gene
Excerpt: The cDNA encoding an open reading frame of target genes or HLA-A*0201 was amplified by PCR. The PCR-amplified product was cloned into a vector. The plasmids were transfected into COS7, which is the target genes and HLA-A*0201-null cell line, using lipofectamine 2000 (Invitrogen) according to the manufacturer's recommended procedures. After 2 days from transfection, the transfected cells were harvested with versene (Invitrogen) and used as the target cells (5×10^4 cells/well) for CTL activity assay.
The established CTL lines and clones raised against these peptides was examined for the ability to recognize target cells that exogenously express ECT2 and HLA-A*0201 molecule. […] COS7 cells transfected with either full length of ECT2 or HLA-A*0201 were prepared as the controls.

Substance | CTL inducibility / specific CTL activity of CTLs stimulated with the peptide (peptide-pulsed T2 cells [1]) | IFN-gamma production of CTL lines stimulated with the peptide (ELISA) (peptide-pulsed T2 cells [2]) | IFN-gamma production of CTL clones stimulated with the peptide (ELISA) (peptide-pulsed T2 cells [3]; listed as ECT2-A02-9-664) | IFN-gamma production of CTLs induced with the peptide (ELISPOT) (peptide-pulsed T2 cells [1]) | Specific CTL activity against COS7 cells transfected with both ECT2 and HLA-A*0201 ([4]; listed as ECT2-A02-9-34) | Specific CTL activity against control COS7 cells expressing either HLA-A*0201 or ECT2 [4] | IFN-gamma production of CTL clones stimulated with the peptide (ELISA) (peptide-pulsed T2 cells [3]; listed as ECT2-A02-9-34) | Specific CTL activity against COS7 cells transfected with both ECT2 and HLA-A*0201 ([4]; listed as ECT2-A02-10-33)
1 (LLIGSTSYV) [compound 1] | strong CTL inducibility |  |  |  |  |  |  | 
3 (FLFNDCLEI) [compound 3] | strong CTL inducibility |  |  |  |  |  |  | 
21 (NLLIGSTSYV) [compound 21] | strong CTL inducibility |  |  |  |  |  |  | 
FLFNDCLEI [SEQ ID NO: 3] | significant and specific CTL activity | potent IFN-gamma production | potent IFN-gamma production | potent IFN-gamma production |  |  |  | 
LLIGSTSYV [SEQ ID NO: 1] | significant and specific CTL activity | potent IFN-gamma production |  | potent IFN-gamma production | potent CTL activity; also recorded: specific CTL activity | no significant specific CTL activity was detected | potent IFN-gamma production | 
NLLIgSTSYV (NLLIGSTSYV; not fully specified; printed as NLLIgSTSYV) [SEQ ID NO: 21] | significant and specific CTL activity | potent IFN-gamma production |  | potent IFN-gamma production |  | no significant specific CTL activity was detected |  | potent CTL activity; also recorded: specific CTL activity
